According to patent publication US20120238449A1, “SYNERGISTIC HERBICIDAL COMPOSITION CONTAINING PENOXSULAM AND PYROXSULAM” (priority 2011, published 2012):

Tests used:
Type in all cases: in vivo
[1] = test system: Shepherd's purse (Capsella bursa-pastoris, CAPBP); assay: Field trial, percent visual weed control of CAPBP; settings: 39-51 days after application
Procedure: (§1) These trials were conducted under field conditions in France, Poland and Syria. Trial sites were located in commercially grown crops wheat, barley and corn. The crops were grown using normal cultural practices for fertilization, seeding, and maintenance to ensure good growth of the crop and the weeds. The trials were conducted using typical small plot herbicide research methodology. Trial plots were between 1 to 2.5 meters (m) wide by 6 to 42 m long. All treatments were applied using a randomized complete block trial design with 2 to 4 replications per treatment. The trial sites had naturally occurring populations of weeds. The weed spectrum included, but was not limited to, wild oat (Avena fatua, AVEFA); Shepherd's purse (Capsella bursa-pastoris, CAPBP); common lambsquarter (Chenopodium album, CHEAL); barnyardgrass (Echinochloa crus-galli, ECHCG); ryegrass (Lolium spp., LOLSS); short-spiked canarygrass (Phalaris brachystachys, PHABR); awned canarygrass (Phalaris paradoxa, PHAPA); narrow-leaved plantain (Plantago lanceolata, PLALA); annual […] (Poa annua, POAAN); and wild buckwheat (Polygonum convolvulus, POLCO).
(§2) Treatments consisted of tank mixes of penoxsulam and pyroxsulam or pyroxsulam+cloquintocet (mexyl) applied in water. Where used, Actirob B adjuvant was applied at use rate of 0.2 to 1 liter per hectare (L/ha) with pyroxsulam containing treatments and in tankmixes. […]

[2] = test system: short-spiked canarygrass (Phalaris brachystachys, PHABR); assay: Field trial, percent visual weed control of PHABR; settings: 28 to 56 days after application
Procedure: as §1, §2

[3] = test system: ryegrass (Lolium spp., LOLSS); assay: Field trial, percent visual weed control of LOLSS; settings: 14 to 61 days after application
Procedure: as §1, §2

[4] = test system: barnyardgrass (Echinochloa crus-galli, ECHCG); assay: Field trial, percent visual weed control of ECHCG; settings: 39-51 days after application
Procedure: as §1, §2

[5] = test system: annual blackgrass (Poa annua, POANN); assay: Field trial, percent visual weed control of POANN; settings: 14 to 61 days after application
Procedure: as §1, §2

[6] = test system: awned canarygrass (Phalaris paradoxa, PHAPA); assay: Field trial, percent visual weed control of PHAPA; settings: 28 to 56 days after application
Procedure: as §1, §2

[7] = test system: wild oat (Avena fatua, AVEFA); assay: Field trial, percent visual weed control of AVEFA; settings: 28 to 56 days after application
Procedure: as §1, §2

[8] = test system: common lambsquarter (Chenopodium album, CHEAL); assay: Field trial, percent visual weed control of CHEAL; settings: 39-51 days after application
Procedure: as §1, §2

[9] = test system: wild buckwheat (Polygonum convolvulus, POLCO); assay: Field trial, percent visual weed control of POLCO; settings: 39-51 days after application
Procedure: as §1, §2

[10] = test system: narrow-leaved plantain (Plantago lanceolata, PLALA); assay: Field trial, percent visual weed control of PLALA; settings: 14 to 61 days after application
Procedure: as §1, §2

| Compound | Control of CAPBP, Obs (Observed Response) ([1]; penoxsulam 5 g ai/ha alone) | Control of PHABR, Obs (Observed Response) ([2]; penoxsulam 20 g ai/ha alone) | Control of LOLSS, Obs (Observed Response) ([3]; penoxsulam 20 g ai/ha alone) | Control of ECHCG, Obs (Observed Response) ([4]; penoxsulam 5 g ai/ha alone) | Control of POANN, Obs (Observed Response) ([5]; penoxsulam 20 g ai/ha alone) | Control of PHAPA, Obs (Observed Response) ([6]; penoxsulam 20 g ai/ha alone) | Control of AVEFA, Obs (Observed Response) ([7]; penoxsulam 20 g ai/ha alone) | Control of CHEAL, Obs (Observed Response) ([8]; penoxsulam 5 g ai/ha alone) | Control of POLCO, Obs (Observed Response) ([9]; penoxsulam 5 g ai/ha alone) | Control of PLALA, Obs (Observed Response) ([10]; penoxsulam 20 g ai/ha alone) | Control of CAPBP, Obs (Observed Response) ([1]; pyroxsulam 4 g ai/ha alone) | Control of PHABR, Obs (Observed Response) ([2]; pyroxsulam 18 g ai/ha alone) | Control of LOLSS, Obs (Observed Response) ([3]; pyroxsulam 20 g ai/ha alone) | Control of ECHCG, Obs (Observed Response) ([4]; pyroxsulam 4 g ai/ha alone) | Control of POANN, Obs (Observed Response) ([5]; pyroxsulam 20 g ai/ha alone) | Control of PHAPA, Obs (Observed Response) ([6]; pyroxsulam 18 g ai/ha alone) | Control of AVEFA, Obs (Observed Response) ([7]; pyroxsulam 18 g ai/ha alone) | Control of CHEAL, Obs (Observed Response) ([8]; pyroxsulam 4 g ai/ha alone) | Control of POLCO, Obs (Observed Response) ([9]; pyroxsulam 4 g ai/ha alone) | Control of PLALA, Obs (Observed Response) ([10]; pyroxsulam 20 g ai/ha alone) |
| --- | --- | --- | --- | --- | --- | --- | --- | --- | --- | --- | --- | --- | --- | --- | --- | --- | --- | --- | --- | --- |
| COc1cnc(OC)n2nc(NS(=O)(=O)c3c(OCC(F)F)cccc3C(F)(F)F)nc12 [Penoxsulam, 2-(2,2-difluoroethoxy)-N-(5,8-dimethoxy-[1,2,4]triazolol1,5-clpyrimidin-2-yl)-6-(trifluoromethyl)benzenesulfonamide] | 20% | 0% | 20% | 0% | 17% | 0% | 0% | 10% | 50% | 13% |  |  |  |  |  |  |  |  |  |  |
| COc1cc(OC)n2nc(NS(=O)(=O)c3c(C(F)(F)F)ccnc3OC)nc2n1 [Pyroxsulam, N-(5,7-dimethoxy[1,2,4]triazolol1,5-alpyrimidin-2-yl)-2-methoxy-4-(trifluoromethyl)-3-pyridinesulfonamide] |  |  |  |  |  |  |  |  |  |  | 70% | 38% | 0% | 65% | 0% | 80% | 65% | 65% | 35% | 7% |
